{"source": "patent US7763604B2", "about": "“Methods for administration of a farnesyl dibenzodiazepinone” (Thallion Pharma Ceuticals, Inc., priority 2005, dated 2010)", "key": {"[1]": {"assay": "population pharmacokinetic analysis, monkey (CIV)", "type": "in vivo", "design": "mean clearance: unit not given here", "conditions": "for mean clearance: monkeys, 14-day continuous infusion", "method": "An analysis was performed to derive allometric equations for Formula I pharmacokinetic parameters using Formula I plasma concentration-time data from three species, including mouse, rat, and monkey, and to estimate human pharmacokinetic parameters from those allometric equations.\nPlasma concentrations of Formula I were obtained from mice, rats, and monkeys following intravenous injection or continuous infusion. Formula I pharmacokinetic parameters in mice, rats, and monkeys were estimated using population pharmacokinetic analysis, a function of the software program NONMEM™ (version 5). Typical population pharmacokinetic parameters for Formula I in humans were extrapolated from allometric equations that were derived from pharmacokinetic parameters estimated in the three animal species.\nA two-compartment model with a first-order elimination from the central compartment adequately described Formula I plasma concentration-time profiles following intravenous bolus injection (30 mg/kg) in mice and rats, 7-day continuous infusion in rats (50 to 170 mg/kg/day), and 14-day continuous infusion in monkeys (5 to 30 mg/kg/day).\nApplication of a two-compartment model with Michaelis-Menten elimination better described the concentration data in monkeys than the linear model. Because the target concentration in humans is 2 μM, at which linear pharmacokinetics is assumed, all simulations for human plasma concentrations were performed based on a two-compartment model with linear first-order elimination."}, "[2]": {"assay": "toxicity of 14-day infusion in rats", "type": "in vivo", "conditions": "all treated and control groups, attributed to the vehicle", "method": "Sprague-Dawley rats received an intravenous continuous infusion over 14 days of Formula I at 25 mg/kg/day, 50 mg/kg/day, or 75 mg/kg/day at a rate of 2 mL/kg/h for 14 consecutive days (same formulation as in Example 7). Blood was collected from the jugular vein in tubes containing K2 EDTA from 3 rats/sex/group at the following time points: 2, 6, and 12 hours after the start of dosing on Day 1, on Day 2 at 6 hours (approximately 30 hours after the start of dosing), on Days 6 and 10 at 6 hours, and on Day 15, 1 hour prior the end of dosing, and then at 5 min, 15 min, 30 min, 1 h, and 2 h after the end of dosing.\nThe toxicity was due to the vehicle and was attributed to smaller size of infusion vessels, and concurrent catheter tract infection."}, "[3]": {"test_system": "human glioma (U-87MG) tumor xenograft", "assay": "human U-87MG glioblastoma xenograft antitumor efficacy", "type": "in vivo, female athymic (nu/nu) nude mice", "conditions": "SC 30 mg/kg q1d×5 over 2 weeks", "source_text": "In this model and the models of Examples 3, 6 and 7, tumor growth was followed every other day by measuring tumor length (L) and width (W) using a calliper. Measurements were converted to tumor volumes (TV; mm^3) using the standard formula, TV=(L×W^2)/2. Tumor volume at day n was expressed as relative tumor volume (RTV) according to the following formula RTV=TVn/TV0, where TVn is the tumor volume at day n and TV0 is the tumor volume at day 0. The percentage of tumor growth inhibition (% TGI) was determined by 1−(mean RTV of treated group/mean RTV of control group)×100. […] Statistical analysis was calculated by the two-tailed unpaired t test using the Prism software. Animals were weighed at least twice weekly during and after treatment until completion of the study. The mice were examined frequently for overt signs of any adverse drug-related side effects.\nThe human U-87 MG (ATCC® no. HTB-14™) glioblastoma antitumor efficacy study was performed at INSERM U318 (Grenoble, France). The U-87MG cell line is derived from a brain glioblastoma of a person. […]\nFor the human glioblastoma antitumor efficacy study, female athymic (nu/nu) nude mice (6-7 weeks of age) were inoculated SC with 5×10^6 U-87MG cells (day 0). […] Tumor growth inhibition (TGI) was calculated on day 34 post tumor cell inoculation, at which time some animals from the vehicle control group had to be sacrificed due to tumor burden."}, "[4]": {"test_system": "P388 murine leukemia cells", "assay": "murine P388 leukemia model, survival", "type": "in vivo", "conditions": "group 2, IV 50 mg/kg in PEG-PG formulation, 10 mice per group", "method": "Formulation: The compound of Formula I is first dissolved in 1 volume of 90% propylene glycol (PG). This is followed by the addition of 2 volumes of 45% polyethylene glycol 400 (PEG 400). The volume ratio of PEG 400/PG/water is respectively 30:30:40. Compound is injected in a volume of 10 mL/kg.\nDBA/2 female mice (6 weeks of age) were injected intraperitoneally (IP) with 1×10^6 P388 murine leukemia cells (day 0). […]\nMice body weights were recorded twice a week. Lethality and behaviour of animals were recorded every day. […] The results are expressed as percent of mean survival time of treated animals over the mean survival time of the control group (treated vs control, T/C %) and as increase life span (mean survival time of treated animals minus that of control animals over the mean survival time of the control group; ILS %)."}}}
{"compound": "CC(C)=CCC/C(C)=C/CC/C(C)=C/CN1C(=O)c2cccc(O)c2Nc2c(O)cc(O)cc21", "note": "[Formula I, 10-farnesyl-4,6,8-trihydroxy-dibenzodiazepin-11-one]", "values": [{"measurement": "Ke", "setting": "[1]; Monkey (CIV), population PK", "value": 2.172, "unit": "h⁻¹"}, {"measurement": "mean clearance", "setting": "[1]; 5 mg/kg/day", "value": 0.63}, {"measurement": "mean clearance", "setting": "[1]; 15 mg/kg/day", "value": 0.57}, {"measurement": "mean clearance", "setting": "[1]; 30 mg/kg/day", "value": 0.23}, {"measurement": "findings at the site of infusion", "setting": "[2]", "value": "necrotization and inflammatory lesions at the site of infusion"}, {"measurement": "body weight loss", "setting": "[3]", "value": "no significant body weight loss"}, {"measurement": "mice died one day after treatment due to formulation toxicity", "setting": "[4]", "value": 3, "unit": "mice"}]}
